Seven compounds from paper PMC6199744, “Development of Chemical Proteomics for the Folateome and Analysis of the Kinetoplastid Folateome” (ACS Infectious Diseases, 2018) can be followed below.

Common to all, as to type: binding
Assay [1] addresses T1, HeLa cell extract proteins (Homo sapiens, UniProt Q9Y5L0).
T1 construct: endogenous in cells; host or cells: HeLa cell extract
T1 sequence (Q9Y5L0 1-923): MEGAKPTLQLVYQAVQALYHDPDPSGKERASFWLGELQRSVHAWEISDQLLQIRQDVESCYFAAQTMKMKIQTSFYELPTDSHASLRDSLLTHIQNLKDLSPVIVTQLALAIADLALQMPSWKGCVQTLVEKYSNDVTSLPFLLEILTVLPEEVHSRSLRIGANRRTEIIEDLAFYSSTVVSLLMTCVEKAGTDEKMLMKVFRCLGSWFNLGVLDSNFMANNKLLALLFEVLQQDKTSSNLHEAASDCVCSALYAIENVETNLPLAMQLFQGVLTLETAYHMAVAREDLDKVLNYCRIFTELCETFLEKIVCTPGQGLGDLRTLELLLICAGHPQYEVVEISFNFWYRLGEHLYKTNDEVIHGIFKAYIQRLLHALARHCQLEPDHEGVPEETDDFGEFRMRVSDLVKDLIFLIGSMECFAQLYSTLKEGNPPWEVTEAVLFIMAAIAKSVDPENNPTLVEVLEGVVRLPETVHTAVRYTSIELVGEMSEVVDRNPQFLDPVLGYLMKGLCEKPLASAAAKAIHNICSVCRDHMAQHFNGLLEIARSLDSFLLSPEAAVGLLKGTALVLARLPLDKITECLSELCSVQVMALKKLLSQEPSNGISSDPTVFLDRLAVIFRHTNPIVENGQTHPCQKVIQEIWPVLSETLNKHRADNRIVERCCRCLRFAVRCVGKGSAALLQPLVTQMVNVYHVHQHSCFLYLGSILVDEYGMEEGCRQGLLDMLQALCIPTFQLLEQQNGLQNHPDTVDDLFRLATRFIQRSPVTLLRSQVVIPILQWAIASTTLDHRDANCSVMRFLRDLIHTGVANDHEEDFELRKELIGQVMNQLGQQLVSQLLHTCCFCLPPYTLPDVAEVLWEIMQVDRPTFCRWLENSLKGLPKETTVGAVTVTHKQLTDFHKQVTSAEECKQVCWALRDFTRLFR

Assay [2] addresses T2, HeLa cell extract proteins (Homo sapiens, UniProt P50454).
T2 construct: endogenous in cells; host or cells: HeLa cell extract
T2 sequence (P50454 19-418): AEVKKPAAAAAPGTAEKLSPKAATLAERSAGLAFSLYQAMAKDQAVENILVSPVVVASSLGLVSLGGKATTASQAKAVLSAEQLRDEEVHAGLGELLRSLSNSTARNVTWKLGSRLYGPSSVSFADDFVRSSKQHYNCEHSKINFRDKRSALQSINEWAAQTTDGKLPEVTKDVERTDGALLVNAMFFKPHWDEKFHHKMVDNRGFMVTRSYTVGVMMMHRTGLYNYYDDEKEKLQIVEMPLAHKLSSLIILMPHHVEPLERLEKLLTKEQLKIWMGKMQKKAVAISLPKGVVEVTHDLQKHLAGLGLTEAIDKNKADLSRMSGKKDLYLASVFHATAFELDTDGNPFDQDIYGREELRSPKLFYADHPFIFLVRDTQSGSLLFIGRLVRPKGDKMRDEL

Assay [3] deals with T3, HeLa cell extract proteins (Homo sapiens, UniProt O95487).
T3 construct: endogenous in cells; host or cells: HeLa cell extract
T3 sequence (O95487 1-1268): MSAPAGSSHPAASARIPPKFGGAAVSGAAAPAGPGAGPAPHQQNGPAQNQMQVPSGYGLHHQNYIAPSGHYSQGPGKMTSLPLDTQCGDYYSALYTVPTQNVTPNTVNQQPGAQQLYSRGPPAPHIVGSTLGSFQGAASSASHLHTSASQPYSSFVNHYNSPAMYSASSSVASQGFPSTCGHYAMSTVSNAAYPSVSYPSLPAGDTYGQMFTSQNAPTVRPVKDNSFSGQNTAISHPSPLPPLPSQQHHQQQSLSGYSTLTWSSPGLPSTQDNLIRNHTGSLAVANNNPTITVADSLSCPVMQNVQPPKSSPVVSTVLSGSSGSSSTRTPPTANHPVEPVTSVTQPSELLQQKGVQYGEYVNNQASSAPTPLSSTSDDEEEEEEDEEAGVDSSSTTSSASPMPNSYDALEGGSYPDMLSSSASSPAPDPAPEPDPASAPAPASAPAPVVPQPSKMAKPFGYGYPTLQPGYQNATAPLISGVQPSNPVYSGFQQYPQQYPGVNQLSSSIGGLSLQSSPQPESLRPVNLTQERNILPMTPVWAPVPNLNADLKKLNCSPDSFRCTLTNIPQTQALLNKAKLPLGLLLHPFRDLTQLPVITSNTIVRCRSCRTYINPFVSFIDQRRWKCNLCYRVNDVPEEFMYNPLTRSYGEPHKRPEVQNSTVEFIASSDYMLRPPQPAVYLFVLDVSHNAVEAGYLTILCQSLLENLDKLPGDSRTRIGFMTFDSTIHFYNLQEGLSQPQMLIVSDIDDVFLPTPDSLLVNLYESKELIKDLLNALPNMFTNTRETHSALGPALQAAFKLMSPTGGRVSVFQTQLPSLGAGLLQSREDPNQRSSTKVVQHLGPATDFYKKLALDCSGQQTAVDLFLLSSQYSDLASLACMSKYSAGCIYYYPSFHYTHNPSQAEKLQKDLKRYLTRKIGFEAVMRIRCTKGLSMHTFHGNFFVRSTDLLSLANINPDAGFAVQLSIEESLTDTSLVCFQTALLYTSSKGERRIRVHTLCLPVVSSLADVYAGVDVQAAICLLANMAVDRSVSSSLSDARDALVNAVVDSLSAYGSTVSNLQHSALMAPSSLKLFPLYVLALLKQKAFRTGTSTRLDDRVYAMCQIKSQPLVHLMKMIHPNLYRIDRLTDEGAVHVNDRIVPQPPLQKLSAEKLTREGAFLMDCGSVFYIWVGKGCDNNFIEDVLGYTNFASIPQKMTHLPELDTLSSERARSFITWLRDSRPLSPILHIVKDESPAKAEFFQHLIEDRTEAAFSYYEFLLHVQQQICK

Assay [4] deals with T4, HeLa cell extract proteins (Homo sapiens, UniProt P36542).
T4 construct: endogenous in cells; host or cells: HeLa cell extract
T4 sequence (P36542 26-298): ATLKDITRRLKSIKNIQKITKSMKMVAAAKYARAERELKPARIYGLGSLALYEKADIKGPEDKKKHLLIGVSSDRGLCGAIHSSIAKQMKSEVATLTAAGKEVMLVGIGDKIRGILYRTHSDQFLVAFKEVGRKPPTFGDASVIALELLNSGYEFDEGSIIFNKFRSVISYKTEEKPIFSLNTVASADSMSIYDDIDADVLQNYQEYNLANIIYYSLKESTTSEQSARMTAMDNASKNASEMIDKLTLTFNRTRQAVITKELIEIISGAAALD

Like-named read-outs stand apart in the source and are kept apart here.

Consider `Nc1nc2cccc(-c3ccccc3)c2n1Cc1ccc(Cl)c(Cl)c1` [compound 3], for which the “fold changes relative to vehicle control” value in assay [1] (HeLa, protein TNPO3) was determined as 1.01; in assay [2] (protein SERPINH1, HeLa), 0.93; in assay [3] (protein SEC24B, HeLa), 1.01; in assay [4] (HeLa, protein ATP5C1), 0.89.
With `NCCOCCOCC(=O)Nc1nc2ncc(CNc3ccc(C(=O)NC(CCC(=O)O)C(=O)O)cc3)nc2c(=O)[nH]1` (stereo not shown) [compound 6], the “fold changes relative to vehicle control” value in assay [1] (HeLa, captured protein TNPO3) turned out to be 1.04; in assay [2] (HeLa, protein SERPINH1), 1.21; in assay [3] (HeLa, captured protein SEC24B), 0.94; in assay [4] (HeLa, captured protein ATP5C1), 0.97.
As to `Nc1nc2[nH]cc(CCc3ccc(C(=O)N[C@@H](CCC(=O)O)C(=O)O)cc3)c2c(=O)[nH]1` [PTX, pemetrexed], the “fold changes relative to vehicle control” value was 0.96 in assay [1], 1.08 in assay [2], 0.94 in assay [3] and 1.01 in assay [4].
Turning to `Nc1nc2c(c(=O)[nH]1)N(C=O)C(CNc1ccc(C(=O)N[C@@H](CCC(=O)O)C(=O)O)cc1)CN2` (stereo partly shown) [LEU, leucovorin], the “fold changes relative to vehicle control” value in assay [1] (HeLa, captured protein TNPO3) is reported as 0.95; in assay [2] (HeLa, protein SERPINH1) it was 0.99; in assay [3] (HeLa, captured protein SEC24B), 1.06; in assay [4] (HeLa, captured protein ATP5C1), 0.99.
Regarding `CCCCCCOc1ccc(Cc2cnc(N)nc2N)cc1` [compound 1], the “fold changes relative to vehicle control” value in assay [1] (HeLa, protein TNPO3) is 0.93; in assay [2] (protein SERPINH1, HeLa) it was 1.07; in assay [3] (protein SEC24B, HeLa), 1.05; in assay [4] (HeLa, protein ATP5C1) it was 1.05.
Turning to `NCCCNc1ccc(C(=O)NC(CCC(=O)O)C(=O)O)cc1` (stereo not shown) [compound 7], the “fold changes relative to vehicle control” value in assay [1] (HeLa, captured protein TNPO3) is listed as 0.96; in assay [2] (HeLa, protein SERPINH1) it was 0.98; in assay [3] (HeLa, captured protein SEC24B), 1.06; in assay [4] (HeLa, captured protein ATP5C1) it was 0.99.
`CCCCCCOc1cccc(Cc2cnc(N)nc2N)c1` [compound 2]: the “fold changes relative to vehicle control” value in assay [1] (HeLa, protein TNPO3) was determined as 0.9; in assay [2] (protein SERPINH1, HeLa), 1.61; in assay [3] (protein SEC24B, HeLa) it was 1.15; in assay [4] (HeLa, protein ATP5C1), 0.9.
